These results are taken from publication PMC10870750 (ACS Polymers Au, 2023).

One series can be described thus: Dynamic light scattering. Type of series: physicochemical. The settings on record: 200 μM in 10 mM PBS; from lack of reliable DLS data and visibly clear solutions.
Series [1] has as its system human red blood cells (RBCs). The settings on record: 50 μM; ref our previous study; cited from earlier work.

Positions of bridges follow the written chain, without caps; N, C: chain ends. Non-standard residues stand in square brackets, D forms with d. Residues, ends and D or L forms follow the SMILES beside them. S5 = C=CCCC[C@](C)(N)C(=O)O

For the compound `CC[C@H](C)[C@H](NC(=O)[C@H](C)NC(=O)[C@H](CCCCN)NC(=O)[C@H](CO)NC(=O)[C@H](CCC(=O)O)NC(=O)[C@@H]1CCCN1C(C)=O)C(=O)N[C@@H](CCCCN)C(=O)N[C@@]1(C)CCCC=CCCC[C@@](C)(C(=O)N[C@H](C(=O)N[C@@H](CO)C(=O)N[C@@H](CCCCN)C(=O)N[C@@H](CCC(=O)O)C(=O)N[C@@H](CCCNC(=N)N)C(=O)N[C@@H](CO)C(=O)N[C@@H](CCCCN)C(=O)N[C@@H](CCCNC(=N)N)C(=O)N[C@@H](CO)C(=O)N2CCC[C@H]2C(N)=O)C(C)C)NC(=O)[C@H](CCCCN)NC(=O)[C@H](CC(C)C)NC(=O)[C@H](CC(C)C)NC1=O` [stapled Ac-P9] (Ac-PESKAIK[S5]LLK[S5]VSKERSKRSP-NH2; staple 8-12), the “solubility / aggregation state in solution” value in the series “Dynamic light scattering” was “soluble or exists in very small aggregates”. Besides, in series [1], the hemolysis entry is on record as “does not induce significant hemolysis”.
